Laboratory results: patent US20040232089A1, “Biocidal compounds for treating water” (VANETTA S.p.A., priority 2003, published 2004)

Legend:
Chlorella sp. = assay: Inhibition of planktonic microalgae duplication; assay type: cell-based; settings: after 96 hours of treatment
Method: This test was carried out by using the microalga Chlorella sp., it is a small (2-10 microns diameter) green single celled microalga with a spherical cell shape. This genus is capable of both autotrophic and heterotrophic growth which may contribute to its ability to rapidly overtake other algae in culture. In laboratory, Chlorella coltures are started by taking from the branchs, inoculates basis, about 10 ml of monospecific colture, and adding 700 ml of […] filtered sea-water, enriched with Walne colture medium and vitamins.
Flasks with algae are kept in a thermostatic room, at 20° C.±0,5; lighting is supplied by 30 watt fluorescent neon tubes and by a 18 watt Osram-fluora lamp, with a photoperiod 16:8 light:dark. Oxygenation is warranted by a continuous air flux in the flask, this is also a way to avoid cells sedimentation. Test was carried out in the thermostatic room, at 20° C., with a 16:8 light:dark cycle in glass test-tube. The tested product has been dissolved in the culture medium, at a double concentration respect to the final wanted. […] Test-tubes were aerated, and kept in thermostatic room for 96 hours; after this period of time an aliquot of each replicate for each concentration was taken, and cellular densities were counted using an haemocytometer.

[1] = Biodegradability OECD 301 A (92/69/EEC C4-A); settings: 7 days after the beginning of the test
Method: In fact, based on data available with respect to the most similar compounds to the menadione derivatives disclosed herein, one would expect a degradability in the range of 0% (percentage calculated based on the initial mass expressed in mg/l) typical of menadione (2-methyl-1,4-naphthalenedione) and 17% (assessed after 28 days) typical of menadione sodium bisulphite (which calculation was performed in accordance with the guidelines OECD301 A attached to directive EEC 92/69/EEC C4-A).
Finally biodegradability was also evaluated according to standard 92/69/EEC C4-A. From the data, both MNB and MPB result to have a remarkably better biodegradability than 2-methyl-1,4-naphthalenedione and particularly than MSB.

[2] = Photo-degradability under daylight and UV; assay type: physicochemical; settings: 10 ppm in drinking water (pH 6,5-7,5)
Method: Similarly, the same behaviour is confirmed when evaluating the photo-degradability under daylight and UV (the irradiation test is carried out on a solution of 10 ppm in drinking water (pH 6,5-7,5)).

CC1(S(=O)(=O)O)CC(=O)c2ccccc2C1=O.NC(=O)c1cccnc1 (centres unmarked) [MNB, menadione nicotinamide bisulphite]
LC1 (Chlorella sp.): 0.002 mg/L
LC50 (Chlorella sp.): 0.055 µg/mL
degradability relative to that of MSB [1]: eight
Light exp. Tot Degr. [2]: 48 h
Light exp. ½ life [2]: 10 h
